Structures are written as SMILES.

Holding throughout (type): cell-based
For assay [1], the system named is AsPC-1 (homozygous mutant KRAS G12D human pancreatic cell line). Kind of assay: KRAS 3D-Cell Proliferation Assay, AsPC-1 (Example 503). The note with it: Homo sapiens, ASPC1, 168 h, AsPC-1 3D culture, 7 days, CellTiter-Glo 3D; read-out: Prolif AsPC-1 3D ATP IC50. Put shortly: (§1)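 IC50s come from a 4-parameter Hill fit of luminescence (CellTiter-Glo 3D) normalized between DMSO (0%) and 1 μM staurosporine (100%). Cells in low-attachment 3D culture, RPMI-1640 with 10% FBS, received serial compound dilutions (0.3% DMSO) after overnight and were incubated 7 days at 37 °C.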
In general terms: ATP-based viability assays read luminescence as a measure of living cells.

Assay [2] concerns HPAC (homozygous mutant KRAS G12D human pancreatic cell line). As to the kind of experiment: KRAS 3D-Cell Proliferation Assay, HPAC (Example 503). The note with it: Homo sapiens, HPAC, 168 h, HPAC 3D culture, 7 days, CellTiter-Glo 3D; read-out: Prolif HPAC 3D ATP IC50. Put shortly: as §1
The test system of assay [3] is PC-9 (KRAS wild type human lung adenocarcinoma cell line). As to the kind of experiment: KRAS 3D-Cell Proliferation Assay, PC-9 (Example 503). The note with it: 168 h, PC-9 3D culture, 7 days, CellTiter-Glo 3D, read-out: Prolif PC9 3D ATP IC50. The method, boiled down:
as §1

For assay [4], the system named is H1975 (KRAS wild type human lung adenocarcinoma cell line). As to the kind of experiment: KRAS 3D-Cell Proliferation Assay, H1975 (Example 503). The note with it: Homo sapiens, NCI-H1975, 168 h, H1975 3D culture, 7 days, CellTiter-Glo 3D; read-out: Prolif H1975 3D ATP IC50. Put shortly: as §1

Take `Cc1cc(-c2nc3c4c(nc(OC[C@@]56CCCN5C[C@H](F)C6)nc4c2F)N2C[C@H]4CC[C@H](N4)[C@H]2[C@H](C)O3)c(F)c(N)c1F` [Compound 18, 2,6-difluoro-3-((5S,5aS,6S,9R)-1-fluoro-12-(((2R,7aS)-2-fluorotetrahydro-1H-pyrrolizin-7a(5H)-yl)methoxy)-5-methyl-5a,6,7,8,9,10-hexahydro-5H-4-oxa-3,10a,11,13,14-pentaaza-6,9-methanonaphtho[1,8-ab]heptalen-2-yl)-5-methylaniline]: the half-maximal inhibitory concentration (IC50) in assay [1] stood at 5590 nM; in assay [2] it was 5220 nM; in assay [3], 7910 nM; in assay [4], 20000 nM.
The corresponding values for `Cc1c(F)c(N)cc(-c2nc3c4c(nc(OC[C@]56CCN5CC(F)(F)C6)nc4c2F)N2C[C@H]4CC[C@H](N4)[C@H]2[C@H](C)O3)c1C(F)(F)F` [Compound 24, 5-((5S,5aS,6S,9R)-12-(((R)-3,3-difluoro-1-azabicyclo[3.2.0]heptan-5-yl)methoxy)-1-fluoro-5-methyl-5a,6,7,8,9,10-hexahydro-5H-4-oxa-3,10a,11,13,14-pentaaza-6,9-methanonaphtho[1,8-ab]heptalen-2-yl)-2-fluoro-3-methyl-4-(trifluoromethyl)aniline] are 4.29 nM, 1.89 nM, 7870 nM and 6710 nM.
Take `C[C@@H]1Oc2nc(-c3cc(O)cc4ccccc34)c(F)c3nc(OC[C@]45CCN4CC(F)(F)C5)nc(c23)N2C[C@H]3CC[C@H](N3)[C@@H]12` [Compound 25, 4-((5S,5aS,6S,9R)-12-(((R)-3,3-difluoro-1-azabicyclo[3.2.0]heptan-5-yl)methoxy)-1-fluoro-5-methyl-5a,6,7,8,9,10-hexahydro-5H-4-oxa-3,10a,11,13,14-pentaaza-6,9-methanonaphtho[1,8-ab]heptalen-2-yl)naphthalen-2-ol]: the half-maximal inhibitory concentration (IC50) in assay [1] turned out to be 464 nM; in assay [2], 78.8 nM; in assay [3], 11000 nM; in assay [4] it was 10700 nM.
The corresponding values for `Cc1c(F)c(N)cc(-c2nc3c4c(nc(OC[C@@H]5C[C@@H](F)CN5C)nc4c2F)N2C[C@H]4CC[C@H](N4)[C@H]2[C@H](C)O3)c1C(F)(F)F` [Compound 26, 2-Fluoro-5-((5S,5aS,6S,9R)-1-fluoro-12-(((2S,4R)-4-fluoro-1-methylpyrrolidin-2-yl)methoxy)-5-methyl-5a,6,7,8,9,10-hexahydro-5H-4-oxa-3,10a,11,13,14-pentaaza-6,9-methanonaphtho[1,8-ab]heptalen-2-yl)-3-methyl-4-(trifluoromethyl)aniline] are 5.19 nM, 3.24 nM, 7640 nM and 1540 nM.
With `C[C@@H]1Oc2nc(-c3cccc4cccc(Cl)c34)c(F)c3nc(OC[C@@]45CCCN4CC4(CC4(F)F)C5)nc(c23)N2C[C@H]3CC[C@H](N3)[C@@H]12` (stereo partly drawn) [Compound 27, (5S,5aS,6S,9R)-2-(8-chloronaphthalen-1-yl)-12-(((7a′S)-2,2-difluorodihydro-1′H,3′H-spiro[cyclopropane-1,2′-pyrrolizin]-7a′(5′H)-yl)methoxy)-1-fluoro-5-methyl-5a,6,7,8,9,10-hexahydro-5H-4-oxa-3,10a,11,13,14-pentaaza-6,9-methanonaphtho[1,8-ab]heptalene], the IC50 in assay [1] amounted to 32.1 nM; in assay [2], 68.1 nM; in assay [3] it was 2780 nM; in assay [4], 2390 nM.
In the same order, the values of `CCc1cccc2cc(O)cc(-c3nc4c5c(nc(OCC67COC(C6)C7)nc5c3F)N3C[C@H]5CC[C@H](N5)[C@H]3[C@H](C)O4)c12` [Compound 28, 4-((5S,5aS,6S,9R)-12-((2-oxabicyclo[2.1.1]hexan-4-yl)methoxy)-1-fluoro-5-methyl-5a,6,7,8,9,10-hexahydro-5H-4-oxa-3,10a,11,13,14-pentaaza-6,9-methanonaphtho[1,8-ab]heptalen-2-yl)-5-ethylnaphthalen-2-ol] are 363 nM, 257 nM, 11000 nM and 20000 nM.
For the compound `Cc1c(F)c(N)cc(-c2nc3c4c(nc(OCC56CCN5C[C@H](F)C6)nc4c2F)N2C[C@H]4CC[C@H](N4)[C@H]2[C@H](C)O3)c1C(F)(F)F` (stereo partly drawn) [Compound 29, 2-fluoro-5-((5S,5aS,6S,9R)-1-fluoro-12-(((3R)-3-fluoro-1-azabicyclo[3.2.0]heptan-5-yl)methoxy)-5-methyl-5a,6,7,8,9,10-hexahydro-5H-4-oxa-3,10a,11,13,14-pentaaza-6,9-methanonaphtho[1,8-ab]heptalen-2-yl)-3-methyl-4-(trifluoromethyl)aniline], the IC50 was found to be 4.98 nM in assay [1], 7.76 nM in assay [2], 8190 nM in assay [3] and 6110 nM in assay [4].
The corresponding values for `C[C@@H]1Oc2nc(-c3cncc4ccccc34)c(F)c3nc(OC[C@@]45CCCN4CC4(CC4(F)F)C5)nc(c23)N2C[C@H]3CC[C@H](N3)[C@@H]12` (stereo partly drawn) [Compound 30, (5S,5aS,6S,9R)-12-(((7a′S)-2,2-difluorodihydro-1′H,3′H-spiro[cyclopropane-1,2′-pyrrolizin]-7a′(5′H)-yl)methoxy)-1-fluoro-2-(isoquinolin-4-yl)-5-methyl-5a,6,7,8,9,10-hexahydro-5H-4-oxa-3,10a,11,13,14-pentaaza-6,9-methanonaphtho[1,8-ab]heptalene] are 166 nM, 154 nM, 3810 nM and 2890 nM.
In the same order, the values of `Cc1c(F)c(N)cc(-c2nc3c4c(nc(OC[C@@H]5CC[C@H]6COCCN65)nc4c2F)N2C[C@H]4CC[C@H](N4)[C@H]2[C@H](C)O3)c1C(F)(F)F` [Compound 31, 2-fluoro-5-((5S,5aS,6S,9R)-1-fluoro-12-(((6S,8aS)-hexahydro-1H-pyrrolo[2,1-c][1,4]oxazin-6-yl)methoxy)-5-methyl-5a,6,7,8,9,10-hexahydro-5H-4-oxa-3,10a,11,13,14-pentaaza-6,9-methanonaphtho[1,8-ab]heptalen-2-yl)-3-methyl-4-(trifluoromethyl)aniline] are 1.64 nM, 0.808 nM, 3790 nM and 423 nM.
In the same order, the values of `Cc1cc(N)c(F)c(-c2nc3c4c(nc(OC[C@@]56CCCN5C[C@H](F)C6)nc4c2F)N2C[C@H]4CC[C@H](N4)[C@H]2[C@H](C)O3)c1C(F)(F)F` [Compound 34, 2-Fluoro-3-((5S,5aS,6S,9R)-1-fluoro-12-(((2R,7aS)-2-fluorotetrahydro-1H-pyrrolizin-7a(5H)-yl)methoxy)-5-methyl-5a,6,7,8,9,10-hexahydro-5H-4-oxa-3,10a,11,13,14-pentaaza-6,9-methanonaphtho[1,8-ab]heptalen-2-yl)-5-methyl-4-(trifluoromethyl)aniline] are 0.692 nM, 0.54 nM, 6950 nM and 340 nM.
In the case of `C[C@@H]1Oc2nc(-c3c(C(F)(F)F)ccc(N)c3F)c(F)c3nc(OC[C@@]45CCCN4C[C@H](F)C5)nc(c23)N2C[C@H]3CC[C@H](N3)[C@@H]12` [Compound 35, 2-fluoro-3-((5S,5aS,6S,9R)-1-fluoro-12-(((2R,7aS)-2-fluorotetrahydro-1H-pyrrolizin-7a(5H)-yl)methoxy)-5-methyl-5a,6,7,8,9,10-hexahydro-5H-4-oxa-3,10a,11,13,14-pentaaza-6,9-methanonaphtho[1,8-ab]heptalen-2-yl)-4-(trifluoromethyl)aniline], the concentration for half-maximal inhibition (IC50) was 10.6 nM in assay [1], 7.4 nM in assay [2], 9170 nM in assay [3] and 5870 nM in assay [4].
As for `Cc1cc(N)c(F)c(-c2nc3c4c(nc(OC[C@@]56CCCN5C[C@H](F)C6)nc4c2F)N2C[C@H]4CC[C@H](N4)[C@H]2CO3)c1C(F)(F)F` [Compound 36, 2-fluoro-3-((5aS,6S,9R)-1-fluoro-12-(((2R,7aS)-2-fluorotetrahydro-1H-pyrrolizin-7a(5H)-yl)methoxy)-5a,6,7,8,9,10-hexahydro-5H-4-oxa-3,10a,11,13,14-pentaaza-6,9-methanonaphtho[1,8-ab]heptalen-2-yl)-5-methyl-4-(trifluoromethyl)aniline], the IC50 in assay [1] was determined as 52.4 nM; in assay [2], 31.4 nM; in assay [3] it was 6110 nM; in assay [4], 1130 nM.
The corresponding values for `C[C@@H]1Oc2nc(-c3cncc4cccc(Cl)c34)c(F)c3nc(OC[C@@]45CCCN4C[C@H](F)C5)nc(c23)N2C[C@H]3CC[C@H](N3)[C@@H]12` [Compound 38, (5S,5aS,6S,9R)-2-(5-Chloroisoquinolin-4-yl)-1-fluoro-12-(((2R,7aS)-2-fluorotetrahydro-1H-pyrrolizin-7a(5H)-yl)methoxy)-5-methyl-5a,6,7,8,9,10-hexahydro-5H-4-oxa-3,10a,11,13,14-pentaaza-6,9-methanonaphtho[1,8-ab]heptalene] are 270 nM, 96.1 nM, 7380 nM and 2830 nM.

One may read the IC50 as the concentration needed to halve the response being measured.
